# Assay results: patent publication US7314755B2, “Preservation of eukaryotic cells using reversible pore formation” (Board of Supervisors of Louisiana State University and …, priority 2003, dated 2008)
# How the values were obtained:
# [1] = test system: J774 cells; assay: HPLC of nucleotides in extracts of cells loaded by ATP poration; format: cell-based, mouse; conditions: for intracellular nucleotides after loading (HPLC chromatogram): 20 min poration at 37° C. in DMEM pH 7.4 with 5 mM ATP, 5 mM AMP or 3.5 mM AMPS, FIG. 5
# Experimental: Acid soluble extracts of cell suspensions were prepared by adding ice-cold 70% perchloric acid to a final concentration of 7% (w/v). Acid insoluble fractions were removed by centrifugation for 10 min at 10,000 g and 4° C. (Eppendorf Centrifuge 5417R, Fischer Scientific, Pittsburgh, Pa.). Extracts were neutralized with ice-cold 5 M K2CO3, and were stored at −80° C. until analyzed. The potassium perchlorate precipitate was removed by centrifugation as above. Analyses were performed using a Dionex HPLC system, including a GP 50 gradient pump, an AS 50 auto-sampler and an AS 50 thermal compartment (Dionex, Sunnyvale, Calif.). Aliquots of the supernatant were applied to a 4.6 mm×25 cm reverse-phase column (Synergy 4M Hydro RP 80A, Phenomenex, Torrance, Calif.),and eluted isocratically for 15 min with a starting buffer of 50 mM K2HPO4/KH2PO4, pH 6.2, containing 10 mM tetrabutyl-ammonium hydrogen sulfate (Sigma, St. Louise, Mo.) at a flow rate of 1 mL/min at 30° C. Then a linear gradient from 0% to 25% acetonitrile was applied over 40 min. Absorbance of the effluent was monitored with a PDA-100 photodiode array detector (Dionex, Sunnyvale, Calif.) at wavelengths from λ=190 nm to λ=390 nm. Peaks were identified by comparison with retention times of standards, as well as by analyzing peak spectra between λ=190 nm and λ=390 nm from a recorded 3D-field with Chromeleon™ software (Dionex, Sunnyvale, Calif.). Concentrations of nucleotides were determined from a measurement of peak area at λ=260 nm. Calibration curves were linear over the range assayed.
# During poration, the cells were exposed to 5 mM AMP, or to 3.5 mM AMPS. Cells were extracted with perchloric acid after incubation. FIG. 5(A) depicts an HPLC chromatogram of the extracted AMP-loaded cells, and FIG. 5(B) depicts an HPLC chromatogram of the extracted AMPS-loaded cells.
# The experiment was otherwise conducted as described in Example 5 and illustrated in FIG. 5(B), except that cellular AMP-deaminase was inhibited by adding 35 μM coformycin to the medium.
# [2] = test system: J774 cells; assay: Trehalose uptake with and without extracellular ATP; format: cell-based
# Experimental: Cell extracts were assayed for trehalose concentrations by separating carbohydrate peaks on a Hamilton RCX10 column, and then analyzing using pulsed amperometric electrochemical detection with an ESA Coulochem cell. […] The white bars are results from treatment for 15 minutes at 37° C. The cross-hatched bars are results from treatment for 15 minutes at 37° C., followed by 2 hours at 0° C. […] Each bar in FIG. 7 represents the mean of several different measurements. Although leaving the pores open for the longer periods of time at 37° C. can lead to cell death, the pores may be left open for longer periods at lower temperatures, while still leaving the cells viable and still allowing higher uptake of trehalose. At least 40% of the cells survived this treatment. We expect that the survivorship percentage will be improved by reducing the time the cells are held at 37° C. prior to chilling; future experiments will be done along these lines.
# [3] = test system: AMP-activated protein kinase; conditions: cited from earlier work
# [4] = test system: J774 cells; assay: AlamarBlue reduction, metabolic activity after ATP-dependent poration; format: cell-based, mouse
# Experimental: J774.A1 mouse macrophage cells (ATCC, Manassas, Va.) were grown in 75 cm^2 cell culture flasks (Corning Incorporated, Corning, N.Y.) containing a standard culture medium of Dubelco's modified Eagle's medium without sodium pyruvate, supplemented with 10% fetal bovine serum, 100 units/mL penicillin, 100 μg/mL streptomycin, and 2 mM glutamine (“DMEM”) (all from Invitrogen, Grand Islands, N.Y.). The cells were maintained in a humidified atmosphere of 10% CO2 and 90% air at 37° C. The number of cells per flask was determined with a hemocytometer after removal with a cell scraper. […]
# (§1) To assess the effect of ATP-induced permeability on cell viability, cells were grown in suspension after activation and subsequent closure of the P2X7 receptor, as described above. […] The number of viable cells at different times was determined by counting with a hemocytometer after diluting the sample 1:1 with a 0.4% Trypan blue solution (Sigma, St. Louise, Mo.). Alternatively, cell viability was assessed by monitoring the metabolic activity of the cells with AlamarBlue™ (BioSource International, Inc., Camarillo, Calif.). […] After adding 20,000 to 40,000 cells to each well, absorbances at λ=570 nm and λ=600 nm were measured with a micro plate reader (Spectramax Plus, Molecular Devices, Sunnyvale, Calif.) at different times. […]
# [5] = test system: J774 cells; assay: Cell proliferation (cell counts) after ATP poration; format: cell-based, mouse; conditions: 15 min in Buffer 1+5 mM ATP, then spinner flask culture; FIG. 3
# Experimental: To introduce compounds that were otherwise membrane-impermeable into the cytoplasm, J774.A1 cells were centrifuged at 175 g; and were then resuspended in Buffer 1 (50 mM K2HPO4/KH2PO4, pH 7.0, 365 mOsm, 250 mM trehalose, 1 mM MgSO4, 5 mM glucose, supplemented with Basal Medium Eagle Vitamin Solution and MEM Amino Acids Solution (Invitrogen, Grand Islands, N.Y.), with each of the last two components diluted to 1×). […] The cells were incubated for 15 min or 30 min at 37° C. in sealed microtubes.
# as §1
# In another series of experiments, we assessed the degree to which cell proliferation was suspended following poration. […]
# [6] = test system: J774 cells; assay: Calorimetric heat dissipation after ATP poration; format: cell-based, mouse; conditions: Buffer 1+5 mM ATP, 37° C., FIG. 4
# Experimental: Calorimetric measurements were conducted to assess the influence of various treatments on the total energy flow of J774 cells. A 2277 thermal activity monitor (LKB Produkter, Bromma, Sweden) was used to measure the heat dissipation of J774 cells in suspension. A 4 mL static ampule charged with 2.7 mL water was used as a reference vessel. Static and dynamic calibrations against water in both ampules were performed before the experimental heat signals were measured. For the experiments, the sample ampule was charged with 2.7 mL of cell suspension. An aliquot of the spinner flask culture was diluted with standard culture medium to give 130,000-250,000 cells in 2.7 mL, which was equilibrated with 10% CO2 and 90% air. All calorimetric measurements were performed at 37° C. A two-hour period was allowed for thermal equilibration after lowering the ampule into the calorimeter. The power signal was then recorded for the next 20 hours. The ongoing proliferation of the cells produced a continuous increase in the heat signal during the measurements.
# In this series of experiments, we assessed the influence of ATP-induced poration on the heat dissipation of J774 cells. […] Each bar in FIG. 4 represents the mean±standard deviation for three to six separate measurements. The pair of asterisks for the bar at three hours indicates a statistically significant difference from control (P<0.05).
# [7] = test system: porated cells; assay: Early unpublished ATP-induced cell poration, cell survival; format: cell-based; conditions: ATP-induced poration as in literature, pores not closed early; usually within about 24 hours
# Excerpt: We observed that various dyes were indeed taken up by the cells as reported in the literature. But, at least in our experiments, we also invariably observed that the cells died soon thereafter.
# [8] = test system: J774 cells; assay: Viability (trypan blue exclusion) after air-drying and rehydration; format: cell-based, mouse; conditions: 1 μM Trifluoperazine and 200 nM cyclosporin A together, in EB drying buffer and rehydration DMEM; versus control; FIG. 10
compound,measurement,setting,value
"Nc1ncnc2c1ncn2[C@@H]1O[C@H](COP(O)(O)=S)[C@@H](O)[C@H]1O [AMPS, Adenosine 5′-phosphorothioate]",intracellular AMPS with AMP-deaminase inhibited,"[1]; 3.5 mM AMPS, 5 mM ATP poration, 35 μM coformycin in medium, FIG. 6",substantial intracellular concentration of AMPS was observed
same,intracellular nucleotides after loading (HPLC chromatogram),[1],substantial production of a new compound
same,uptake by the cells in the absence of ATP,"[2]; no pore opening, data not shown",only negligible concentrations
same,"Km value, fold lower than the natural effector 5′-AMP",[3],approximately 6 fold
Nc1ncnc2c1ncn2[C@@H]1O[C@H](COP(=O)(O)O)[C@@H](O)[C@H]1O [AMP],intracellular nucleotides after loading (HPLC chromatogram),[1],"an increase in ADP, and a substantial increase in IMP"
"Nc1ncnc2c1ncn2[C@@H]1O[C@H](COP(=O)(O)OP(=O)(O)OP(=O)(O)O)[C@@H](O)[C@H]1O [ATP, adenosine 5′-triphosphate]",metabolic activity when poration time increased from 15 minutes to 30 minutes,"[4]; Buffer 1+5 mM ATP, measured 17 h and 41 h after treatment, FIG. 2",decreased substantially
same,reduction of metabolic activity (AlamarBlue reduction),"[4]; J774 cells, 40,000 per well, 15 min incubation, versus untreated control, FIG. 1",about 50%
same,time for which cell proliferation stopped after poration,[5],approximately 20 hours
same,heat dissipation 3 hours after poration,[6]; versus control cells,significantly reduced
same,heat signal 24 hours after poration,[6]; versus untreated control cells,indistinguishable from that for the untreated control cells
same,cells surviving extended pore opening at low temperature,"[2]; Buffer 1+5 mM ATP, 15 min at 37° C. followed by 2 hours at 0° C.",At least 40%
same,fate of porated cells in early work,[7],invariably died
OC[C@H]1O[C@@H](n2cnc3c2N=CNC[C@H]3O)[C@H](O)[C@@H]1O [coformycin],effect on the metabolism of AMPS in the cells,"[1]; 35 μM coformycin in medium, AMPS-loaded porated cells, FIG. 6",inhibited the metabolism of AMPS in the cells
OC[C@H]1O[C@H](O[C@H]2O[C@H](CO)[C@@H](O)[C@H](O)[C@H]2O)[C@H](O)[C@@H](O)[C@@H]1O [trehalose],trehalose uptake in ATP-treated cells,"[2]; Buffer 1+5 mM ATP (250 mM trehalose), versus Buffer 1 without ATP, 15 min 37° C. or plus 2 h 0° C., FIG. 7",significantly higher trehalose uptake
same,trehalose uptake in the absence of extracellular ATP,"[2]; Buffer 1 without ATP, FIG. 7",Some uptake of trehalose was observed
"CN1CCN(CCCN2c3ccccc3Sc3ccc(C(F)(F)F)cc32)CC1 [trifluoperazine, Trifluoperazine]",viability post-drying with apoptosis inhibitors,[8],higher viability post-drying
cyclosporin A,viability post-drying with apoptosis inhibitors,[8],higher viability post-drying
